Laboratory results as given in US20260176320A1, “MODULATORS OF G-PROTEIN COUPLED RECEPTORS” (priority 2018, published 2026).
Read-outs that look alike come from different tables or passages of the source.

Tests used:
[1] = target: GLP-1R (Homo sapiens, UniProt P43220); test: HitHunter cAMP assay (GLP-1R); assay type: cell-based; conditions: cAMP, read-out: (Emax) GLP-1R
Protocol: (§1) Suspension cells were harvested and resuspended in 1×HBSS (+10 mM HEPES, 625 μM IBMX, 0.2% BSA) according to the following procedure: 5 μL of 2× cell suspension+1× antibody were added to each well, where the optimal cell density was 10,000 cells per well in a low volume 384-well plate. Agonist serial dilutions in a separate 384 well dilution plate in a 22-point series of 2× dilutions of agonist in DMSO were performed as follows. 80 μL of the highest concentration of Agonist/DMSO was added to well No. 1. 40 μL was removed from well No. 1 and added it to well No. 2, followed by gentle mixing. […] This process was repeated until well No. 22. Additional serial dilutions for additional agonists were set up in a similar manner. 50 nL of each 2× agonist serial dilution was added in duplicate to the designated agonist rows of the assay plate using the Labcyte ECHO. Assay plate was incubated for 30 minutes at room temperature. Following agonist incubation, 5 μL of cAMP Antibody Reagent was added to all wells. […] Plates were spun down briefly. Assay plate was incubated for 1 hour at room temperature in the dark for the immunocompetition reaction to occur. […] Plates were spun down briefly. Assay plate was incubated O/N at room temperature in the dark. Samples were read on Tecan i-control plate reader using luminescence mode with 300 ms integration time. Data analysis was performed using GraphPad Prism.

[2] = target: T1, GIP-R (Homo sapiens, UniProt P48546); test: HitHunter cAMP assay (GIP-R); assay type: cell-based; conditions: cAMP, read-out: (Emax) GIP-R
T1 sequence (P48546 22-466): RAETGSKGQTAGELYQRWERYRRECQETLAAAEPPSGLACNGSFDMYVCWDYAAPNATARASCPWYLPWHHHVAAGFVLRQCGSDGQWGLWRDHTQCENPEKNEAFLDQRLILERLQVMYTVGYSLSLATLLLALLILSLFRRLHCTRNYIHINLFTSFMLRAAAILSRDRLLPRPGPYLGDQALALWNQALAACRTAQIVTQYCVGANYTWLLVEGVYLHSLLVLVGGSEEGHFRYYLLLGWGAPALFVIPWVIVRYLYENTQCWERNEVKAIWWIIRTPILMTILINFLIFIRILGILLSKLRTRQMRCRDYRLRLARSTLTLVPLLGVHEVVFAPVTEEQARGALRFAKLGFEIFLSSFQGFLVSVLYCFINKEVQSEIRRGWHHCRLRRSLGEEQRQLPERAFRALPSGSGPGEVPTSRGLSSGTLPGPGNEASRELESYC
Protocol: as §1

Chain of GLP-1R (P43220 24-463): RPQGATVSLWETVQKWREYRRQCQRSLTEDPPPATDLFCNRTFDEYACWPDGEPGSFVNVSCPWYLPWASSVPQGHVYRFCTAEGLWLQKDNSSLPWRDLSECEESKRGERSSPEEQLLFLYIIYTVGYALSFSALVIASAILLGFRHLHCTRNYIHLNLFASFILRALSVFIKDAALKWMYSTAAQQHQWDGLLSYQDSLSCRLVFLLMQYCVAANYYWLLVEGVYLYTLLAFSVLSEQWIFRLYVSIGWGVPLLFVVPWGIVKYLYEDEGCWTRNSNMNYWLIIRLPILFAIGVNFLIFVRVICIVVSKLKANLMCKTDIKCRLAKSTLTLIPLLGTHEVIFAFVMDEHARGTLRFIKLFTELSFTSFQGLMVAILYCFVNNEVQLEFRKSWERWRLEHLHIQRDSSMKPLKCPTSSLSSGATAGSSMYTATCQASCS

Row | Compound | Emax ([1]; Table 3) [%] | Emax ([1]; Table 3A) [%] | Emax ([2]; Table 3) [%] | Emax ([2]; Table 3A) [%]
1 | CCCCCCCCCCCCCCCC(=O)N[C@@H](CCC(=O)NCCCC[C@H](NC(=O)[C@H](CO)NC(=O)[C@@H]1CCCN1C(=O)[C@@H]1CCCN1C(=O)[C@@H]1CCCN1C(=O)[C@H](C)NC(=O)CNC(=O)[C@H](CO)NC(=O)[C@H](CO)NC(=O)[C@@H]1CCCN1C(=O)CNC(=O)CNC(=O)[C@H](C)NC(=O)[C@H](CC(C)C)NC(=O)[C@H](CC(C)C)NC(=O)[C@H](Cc1c[nH]c2ccccc12)NC(=O)[C@H](CC(N)=O)NC(=O)[C@@H](NC(=O)[C@H](Cc1ccccc1)NC(=O)[C@H](CCC(=O)O)NC(=O)C(C)(C)NC(=O)[C@H](C)NC(=O)[C@H](C)NC(=O)[C@H](CCC(N)=O)NC(=O)[C@H](CCCCN)NC(=O)[C@H](CC(=O)O)NC(=O)[C@H](CC(C)C)NC(=O)[C@H](Cc1ccc(O)cc1)NC(=O)[C@@H](NC(=O)[C@H](CO)NC(=O)[C@H](Cc1ccc(O)cc1)NC(=O)[C@H](CC(=O)O)NC(=O)[C@H](CO)NC(=O)[C@@H](NC(=O)[C@H](Cc1ccccc1)NC(=O)[C@@H](NC(=O)CNC(=O)[C@H](CCC(=O)O)NC(=O)CSCC(=O)NCCN1C[C@H](C)CC1=O)[C@@H](C)O)[C@@H](C)O)[C@@H](C)CC)C(C)C)C(N)=O)C(=O)O (single isomer, unassigned) [Compound 28] | 101 | 101 | 57 | 57
2 | CCCCCCCCCCCCCCCC(=O)N[C@@H](CCC(=O)NCCCC[C@H](NC(=O)[C@H](CO)NC(=O)[C@@H]1CCCN1C(=O)[C@@H]1CCCN1C(=O)[C@@H]1CCCN1C(=O)[C@H](C)NC(=O)CNC(=O)[C@H](CO)NC(=O)[C@H](CO)NC(=O)[C@@H]1CCCN1C(=O)CNC(=O)CNC(=O)[C@H](C)NC(=O)[C@H](CC(C)C)NC(=O)[C@H](CC(C)C)NC(=O)[C@H](Cc1c[nH]c2ccccc12)NC(=O)[C@H](CC(N)=O)NC(=O)[C@@H](NC(=O)[C@H](Cc1ccccc1)NC(=O)[C@H](CCC(=O)O)NC(=O)C(C)(C)NC(=O)[C@H](C)NC(=O)[C@H](C)NC(=O)[C@H](CCC(N)=O)NC(=O)[C@H](CCCCN)NC(=O)[C@H](CC(=O)O)NC(=O)[C@H](CC(C)C)NC(=O)[C@H](Cc1ccc(O)cc1)NC(=O)[C@@H](NC(=O)[C@H](CO)NC(=O)[C@H](Cc1ccc(O)cc1)NC(=O)[C@H](CC(=O)O)NC(=O)[C@H](CO)NC(=O)[C@@H](NC(=O)[C@H](Cc1ccccc1)NC(=O)[C@@H](NC(=O)CNC(=O)[C@H](CCC(=O)O)NC(=O)CSCC(=O)NCCN1C(=O)C[C@@H](CC)C1=O)[C@@H](C)O)[C@@H](C)O)[C@@H](C)CC)C(C)C)C(N)=O)C(=O)O (single isomer, unassigned) [Compound 61] | 96 | 96 | 56 | 56
3 | CCCCCCCCCCCCCCCC(=O)N[C@@H](CCC(=O)NCCCC[C@H](NC(=O)[C@H](CO)NC(=O)[C@@H]1CCCN1C(=O)[C@@H]1CCCN1C(=O)[C@@H]1CCCN1C(=O)[C@H](C)NC(=O)CNC(=O)[C@H](CO)NC(=O)[C@H](CO)NC(=O)[C@@H]1CCCN1C(=O)CNC(=O)CNC(=O)[C@H](C)NC(=O)[C@H](CC(C)C)NC(=O)[C@H](CC(C)C)NC(=O)[C@H](Cc1c[nH]c2ccccc12)NC(=O)[C@H](CC(N)=O)NC(=O)[C@@H](NC(=O)[C@H](Cc1ccccc1)NC(=O)[C@H](CCC(=O)O)NC(=O)C(C)(C)NC(=O)[C@H](C)NC(=O)[C@H](C)NC(=O)[C@H](CCC(N)=O)NC(=O)[C@H](CCCCN)NC(=O)[C@H](CC(=O)O)NC(=O)[C@H](CC(C)C)NC(=O)[C@H](Cc1ccc(O)cc1)NC(=O)[C@@H](NC(=O)[C@H](CO)NC(=O)[C@H](Cc1ccc(O)cc1)NC(=O)[C@H](CC(=O)O)NC(=O)[C@H](CO)NC(=O)[C@@H](NC(=O)[C@H](Cc1ccccc1)NC(=O)[C@@H](NC(=O)CNC(=O)[C@H](CCC(=O)O)NC(=O)CSCC(=O)NCCN1C(=O)C[C@H](CC)C1=O)[C@@H](C)O)[C@@H](C)O)[C@@H](C)CC)C(C)C)C(N)=O)C(=O)O (single isomer, unassigned) [Compound 62] | 101 | 101 | 48 | 48
4 | CCCCCCCCCCCCCCCC(=O)N[C@@H](CCC(=O)NCCCC[C@H](NC(=O)[C@H](CO)NC(=O)[C@@H]1CCCN1C(=O)[C@@H]1CCCN1C(=O)[C@@H]1CCCN1C(=O)[C@H](C)NC(=O)CNC(=O)[C@H](CO)NC(=O)[C@H](CO)NC(=O)[C@@H]1CCCN1C(=O)CNC(=O)CNC(=O)[C@H](C)NC(=O)[C@H](CC(C)C)NC(=O)[C@H](CC(C)C)NC(=O)[C@H](Cc1c[nH]c2ccccc12)NC(=O)[C@H](CC(N)=O)NC(=O)[C@@H](NC(=O)[C@H](Cc1ccccc1)NC(=O)[C@H](CCC(=O)O)NC(=O)C(C)(C)NC(=O)[C@H](C)NC(=O)[C@H](C)NC(=O)[C@H](CCC(N)=O)NC(=O)[C@H](CCCCN)NC(=O)[C@H](CC(=O)O)NC(=O)[C@H](CC(C)C)NC(=O)[C@H](Cc1ccc(O)cc1)NC(=O)[C@@H](NC(=O)[C@H](CO)NC(=O)[C@H](Cc1ccc(O)cc1)NC(=O)[C@H](CC(=O)O)NC(=O)[C@H](CO)NC(=O)[C@@H](NC(=O)[C@H](Cc1ccccc1)NC(=O)[C@@H](NC(=O)CNC(=O)[C@H](CCC(=O)O)NC(=O)CSCC(=O)NCCN1C(=O)[C@@H](C)[C@H](C)C1=O)[C@@H](C)O)[C@@H](C)O)[C@@H](C)CC)C(C)C)C(N)=O)C(=O)O (single isomer, unassigned) [Compound 63] | 91 | 91 | 24 | 24
5 | CCCCCCCCCCCCCCCC(=O)N[C@@H](CCC(=O)NCCCC[C@H](NC(=O)[C@H](CO)NC(=O)[C@@H]1CCCN1C(=O)[C@@H]1CCCN1C(=O)[C@@H]1CCCN1C(=O)[C@H](C)NC(=O)CNC(=O)[C@H](CO)NC(=O)[C@H](CO)NC(=O)[C@@H]1CCCN1C(=O)CNC(=O)CNC(=O)[C@H](C)NC(=O)[C@H](CC(C)C)NC(=O)[C@H](CC(C)C)NC(=O)[C@H](Cc1c[nH]c2ccccc12)NC(=O)[C@H](CC(N)=O)NC(=O)[C@@H](NC(=O)[C@H](Cc1ccccc1)NC(=O)[C@H](CCC(=O)O)NC(=O)C(C)(C)NC(=O)[C@H](C)NC(=O)[C@H](C)NC(=O)[C@H](CCC(N)=O)NC(=O)[C@H](CCCCN)NC(=O)[C@H](CC(=O)O)NC(=O)[C@H](CC(C)C)NC(=O)[C@H](Cc1ccc(O)cc1)NC(=O)[C@@H](NC(=O)[C@H](CO)NC(=O)[C@H](Cc1ccc(O)cc1)NC(=O)[C@H](CC(=O)O)NC(=O)[C@H](CO)NC(=O)[C@@H](NC(=O)[C@H](Cc1ccccc1)NC(=O)[C@@H](NC(=O)CNC(=O)[C@H](CCC(=O)O)NC(=O)CSCC(=O)NCCN1C[C@@H](C)CC1=O)[C@@H](C)O)[C@@H](C)O)[C@@H](C)CC)C(C)C)C(N)=O)C(=O)O (single isomer, unassigned) [Compound 64] | 97 | 97 | 35 | 35
6 | CCCCCCCCCCCCCCCC(=O)N[C@@H](CCC(=O)NCCCC[C@H](NC(=O)[C@H](CO)NC(=O)[C@@H]1CCCN1C(=O)[C@@H]1CCCN1C(=O)[C@@H]1CCCN1C(=O)[C@H](C)NC(=O)CNC(=O)[C@H](CO)NC(=O)[C@H](CO)NC(=O)[C@@H]1CCCN1C(=O)CNC(=O)CNC(=O)[C@H](C)NC(=O)[C@H](CC(C)C)NC(=O)[C@H](CC(C)C)NC(=O)[C@H](Cc1c[nH]c2ccccc12)NC(=O)[C@H](CC(N)=O)NC(=O)[C@@H](NC(=O)[C@H](Cc1ccccc1)NC(=O)[C@H](CCC(=O)O)NC(=O)C(C)(C)NC(=O)[C@H](C)NC(=O)[C@H](C)NC(=O)[C@H](CCC(N)=O)NC(=O)[C@H](CCCCN)NC(=O)[C@H](CC(=O)O)NC(=O)[C@H](CC(C)C)NC(=O)[C@H](Cc1ccc(O)cc1)NC(=O)[C@@H](NC(=O)[C@H](CO)NC(=O)[C@H](Cc1ccc(O)cc1)NC(=O)[C@H](CC(=O)O)NC(=O)[C@H](CO)NC(=O)[C@@H](NC(=O)[C@H](Cc1ccccc1)NC(=O)[C@@H](NC(=O)CNC(=O)[C@H](CCC(=O)O)NC(=O)CSCC(=O)NCCN1C(=O)CC[C@H]1C)[C@@H](C)O)[C@@H](C)O)[C@@H](C)CC)C(C)C)C(N)=O)C(=O)O (single isomer, unassigned) [Compound 74] | 92 | 92 | 47 | 47
